Experimental data reported in publication PMC6711031, “Discovery of new butyrylcholinesterase inhibitors via structure-based virtual screening” (Journal of Enzyme Inhibition and Medicinal Chemistry, 2019).
Read-outs that look alike come from different tables or passages of the source.

Target: T1, BChE from equine serum (Equus caballus, UniProt P81908)
T1 construct: BChE from equine serum (Sigma); purchased Sigma; host or cells: equine serum
Assay: biochemical
Settings: eqBChE 0.22 U/mL, Tris-HCl pH 8.0, 20 min preincubation at 37 °C, butyrylthiocholine iodide 0.5 mM, read at 412 nm
Method: Selected hits were obtained from NCI and they were provided as dry powders in variable quantities (5–10 mg). […] Subsequently, they were diluted to the required concentrations with Tris buffer pH 8.0 for the assay. Enzymatic inhibition assays were performed on BChE from equine serum (Sigma), according to the spectrophotometric Ellman's method. The experiment was performed in 48-well plates in a final volume of 100 µL. Each well contained 0.22 U/mL eqBChE dissolved in Tris–HCl buffer, pH 8.0. They were preincubated for 20 min at different compound concentrations at 37 °C. Then 0.5 mM butyrylthiocholine iodide (Sigma) and 0.35 mM 5,5′-dithiobis -2-nitrobenzoico (DTNB; Sigma) were added. Colour development was measured spectrophotometrically at 412 nm using microplate reader (BioTek ELx800) at a rate of one measurement per minute over 15 min period. […] All samples were assayed in at least duplicate measurements. In general, the amount of DMSO was kept below 1% in the assay. IC50 values were determined graphically from inhibition curves using Graph Pad prism version 6, Graph Pad Software, Inc..

T1 sequence (P81908 whole entry): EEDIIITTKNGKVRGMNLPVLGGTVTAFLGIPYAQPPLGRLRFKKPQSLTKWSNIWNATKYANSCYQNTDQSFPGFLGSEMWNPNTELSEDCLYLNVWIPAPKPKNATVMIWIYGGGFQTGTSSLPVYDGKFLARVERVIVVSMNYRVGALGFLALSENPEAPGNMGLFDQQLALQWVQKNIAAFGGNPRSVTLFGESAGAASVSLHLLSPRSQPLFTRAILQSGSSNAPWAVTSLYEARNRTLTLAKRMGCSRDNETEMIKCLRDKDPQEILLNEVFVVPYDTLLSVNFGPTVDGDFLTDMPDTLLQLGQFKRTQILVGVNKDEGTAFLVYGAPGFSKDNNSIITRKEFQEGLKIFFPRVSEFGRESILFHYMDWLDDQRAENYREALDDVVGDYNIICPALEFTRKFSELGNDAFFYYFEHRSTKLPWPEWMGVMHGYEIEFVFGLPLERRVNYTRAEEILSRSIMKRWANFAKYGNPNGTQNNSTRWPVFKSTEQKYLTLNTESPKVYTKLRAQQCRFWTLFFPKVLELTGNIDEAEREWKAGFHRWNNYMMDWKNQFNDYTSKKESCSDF

SMILES | IC50 (read-out: IC50 value) | IC50 (IC50 value)
O=C1CC2COc3ccc(OCCN4CCCC4)cc3C2=NN1c1ccccc1 (stereo not drawn) [Compound 4, 2-phenyl-9–(2-(pyrrolidin-1-yl)ethoxy)-4a,5-dihydro-2H-chromeno[4,3-c]pyridazin-3(4H)-one] | 8.3 ± 0.07 µM | –
OC(c1ccccc1)C(NCCNCc1ccccc1)c1ccccc1 (stereo not drawn) [Compound 12, 2-[2-(benzylamino)ethylamino]-1,2-diphenylethanol] | 22.2 ± 0.12 µM | –
NCCC1CCc2[nH]c3ccccc3c2C1 (stereo not drawn) [Compound 26, 2–(2,3,4,9-tetrahydro-1H-carbazol-3-yl)ethanamine] | – | 39.7 ± 0.16 µM
